According to US20170050957A1, “4-AMINO-6-(HETEROCYCLIC)PICOLINATES AND 6-AMINO-2-(HETEROCYCLIC)PYRIMIDINE-4-CARBOXYLATES AND THEIR USE AS HERBICIDES” (Dow AgroSciences LLC, priority 2013, published 2017):
Like-named read-outs stand apart in the source and are kept apart here.

Experiments:
[1] = system: Key Grass and Sedge Weeds as well as Grass Crops; assay: Post-emergent Test II herbicidal activity (Table 16); type: in vivo; conditions: post-emergence, 336 h, 14 days after application; for pest or weed control at 35 g/ha: 35 g ai/ha; for pest or weed control at 70 g/ha: 70 g ai/ha; for pest or weed control at 140 g/ha: 140 g ai/ha
How it was run: (§1)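 Post-emergence spray; seedlings 7-21 d old, 1st-2nd true leaf; 187 L/ha; serial rates 1×-1/16×; solvent blank controls; subirrigated; visual % injury at 14 d.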

[2] = system: Key Broadleaf Weed and Crop Species; assay: Post-emergent Test II herbicidal activity (Table 15); type: in vivo; conditions: post-emergence, 336 h, 14 d; for pest or weed control at 35 g/ha: 35 g ai/ha; for pest or weed control at 70 g/ha: 70 g ai/ha; for pest or weed control at 140 g/ha: 140 g ai/ha
How it was run: as §1

[3] = Cyperus esculentus, yellow nutsedge (Cyperus esculentus), read-out: Visual Growth Reduction (%) 14 Days After Application CYPES
[4] = Echinochloa crus-galli, barnyardgrass (Echinochloa crus-galli), read-out: Visual Growth Reduction (%) 14 Days After Application ECHCG
[5] = Oryza sativa, rice (Oryza sativa), read-out: Visual Growth Reduction (%) 14 Days After Application ORYSA
[6] = Setaria faberi, giant foxtail (Setaria faberi), read-out: Visual Growth Reduction (%) 14 Days After Application SETFA
[7] = Triticum aestivum, wheat, spring (Triticum aestivum), read-out: Visual Growth Reduction (%) 14 Days After Application TRZAS
[8] = Zea mays, maize, corn (Zea mays), read-out: Visual Growth Reduction (%) 14 Days After Application ZEAMX
[9] = Abutilon theophrasti, velvetleaf (Abutilon theophrasti), read-out: Visual Growth Reduction (%) 14 Days After Application, ABUTH
[10] = Amaranthus retroflexus, redroot pigweed (Amaranthus retroflexus), read-out: Visual Growth Reduction (%) 14 Days After Application, AMARE
[11] = Brassica napus, oilseed rape, canola (Brassica napus), read-out: Visual Growth Reduction (%) 14 Days After Application, BRSNN
[12] = Chenopodium album, lambsquarters (Chenopodium album), read-out: Visual Growth Reduction (%) 14 Days After Application, CHEAL
[13] = Euphorbia heterophylla, wild poinsettia (Euphorbia heterophylla), read-out: Visual Growth Reduction (%) 14 Days After Application, EPHHL
[14] = Helianthus annuus, sunflower (Helianthus annuus), read-out: Visual Growth Reduction (%) 14 Days After Application, HELAN

Cc1c(-c2ccc3ccsc3c2)nc(C(=O)O)c(Cl)c1N [Compound 3.19]
melting point: 157 to 162 °C | pest or weed control at 35 g/ha [1, 3]: 0 to 29% | pest or weed control at 70 g/ha [1, 3]: 0 to 29% | pest or weed control at 140 g/ha [1, 3]: 0 to 29% | pest or weed control at 35 g/ha [1, 4]: 0 to 29% | pest or weed control at 70 g/ha [1, 4]: 0 to 29% | pest or weed control at 140 g/ha [1, 4]: 0 to 29% | pest or weed control at 35 g/ha [1, 5]: 0 to 29% | pest or weed control at 70 g/ha [1, 5]: 0 to 29% | pest or weed control at 140 g/ha [1, 5]: 0 to 29% | pest or weed control at 35 g/ha [1, 6]: 0 to 29% | pest or weed control at 70 g/ha [1, 6]: 0 to 29% | pest or weed control at 140 g/ha [1, 6]: 0 to 29% | pest or weed control at 35 g/ha [1, 7]: 0 to 29% | pest or weed control at 70 g/ha [1, 7]: 0 to 29% | pest or weed control at 140 g/ha [1, 7]: 0 to 29% | pest or weed control at 35 g/ha [1, 8]: 0 to 29% | pest or weed control at 70 g/ha [1, 8]: 0 to 29% | pest or weed control at 140 g/ha [1, 8]: 0 to 29% | pest or weed control at 35 g/ha [2, 9]: 0 to 29% | pest or weed control at 70 g/ha [2, 9]: 0 to 29% | pest or weed control at 140 g/ha [2, 9]: 60 to 74% | pest or weed control at 35 g/ha [2, 10]: 60 to 74% | pest or weed control at 70 g/ha [2, 10]: 95 to 100% | pest or weed control at 140 g/ha [2, 10]: 75 to 84% | pest or weed control at 35 g/ha [2, 11]: 0 to 29% | pest or weed control at 70 g/ha [2, 11]: 0 to 29% | pest or weed control at 140 g/ha [2, 11]: 0 to 29% | pest or weed control at 35 g/ha [2, 12]: 60 to 74% | pest or weed control at 70 g/ha [2, 12]: 60 to 74% | pest or weed control at 140 g/ha [2, 12]: 75 to 84% | pest or weed control at 35 g/ha [2, 13]: 0 to 29% | pest or weed control at 70 g/ha [2, 13]: 0 to 29% | pest or weed control at 140 g/ha [2, 13]: 0 to 29% | pest or weed control at 35 g/ha [2, 14]: 85 to 94% | pest or weed control at 70 g/ha [2, 14]: 85 to 94% | pest or weed control at 140 g/ha [2, 14]: 85 to 94%
